Measured values published in ChEMBL document CHEMBL3885881, “DrugMatrix”.

Species: Rattus norvegicus
Experiment: DrugMatrix - Regimen: Daily Repeat
Format: toxicity, organism-based, Sprague-Dawley
Design: regimen Daily Repeat, gender Male, age 6-8 weeks
Settings: in vivo, po, route oral GAVAGE, […]; for ABSOLUTE BASOPHIL / ABSOLUTE EOSINOPHIL / ABSOLUTE LYMPHOCYTE / ABSOLUTE MONOCYTE / ABSOLUTE SEGMENTED NEUTROPHIL / BASOPHIL / EOSINOPHIL / ERYTHROCYTE COUNT / HEMATOCRIT / HEMOGLOBIN / LEUKOCYTE COUNT / LYMPHOCYTE / MEAN CORPUSCULAR HEMOGLOBIN / MEAN CORPUSCULAR HEMOGLOBIN CONCENTRATION / MEAN CORPUSCULAR VOLUME / MONOCYTE / NEUTROPHIL / NUCLEATED RED BLOOD CELLS / PLATELET COUNT: tissue Blood; for ALANINE AMINOTRANSFERASE / ALBUMIN / ALKALINE PHOSPHATASE / ASPARTATE AMINOTRANSFERASE / BLOOD UREA NITROGEN / CARBON DIOXIDE / CHLORIDE / CHOLESTEROL / CREATINE PHOSPHOKINASE / CREATININE / GLUCOSE / LACTATE DEHYDROGENASE / LIPASE / PHOSPHORUS / POTASSIUM / SODIUM / TOTAL BILIRUBIN / TOTAL PROTEIN / URIC ACID: tissue Plasma
[1] = 10 mg/kg, 120 h, dose level Low, time 5 day
[2] = 250 mg/kg, 72 h, dose level High, time 3 day
[3] = 250 mg/kg, 120 h, dose level High, time 5 day

COc1cc(N)c(Cl)cc1C(=O)NC1CCN(CCCOc2ccc(F)cc2)CC1OC (centres undefined) [CISAPRIDE]
ABSOLUTE BASOPHIL [1]: 0 CELLS/uL | ABSOLUTE EOSINOPHIL [1]: 0 CELLS/uL | ABSOLUTE LYMPHOCYTE [1]: 8665 CELLS/uL | ABSOLUTE MONOCYTE [1]: 47.33 CELLS/uL | ABSOLUTE SEGMENTED NEUTROPHIL [1]: 387.67 CELLS/uL | BASOPHIL [1]: 0% | EOSINOPHIL [1]: 0% | ERYTHROCYTE COUNT [1]: 6.01 x10E6/uL | HEMATOCRIT [1]: 36.43% | HEMOGLOBIN [1]: 13.9 G/DL | LEUKOCYTE COUNT [1]: 9.1 x10E3/uL | LYMPHOCYTE [1]: 94.67% | MEAN CORPUSCULAR HEMOGLOBIN [1]: 23.2 pg | MEAN CORPUSCULAR HEMOGLOBIN CONCENTRATION [1]: 38.17 G/DL | MEAN CORPUSCULAR VOLUME [1]: 60.73 fL | MONOCYTE [1]: 0.67% | NEUTROPHIL [1]: 4.67% | NUCLEATED RED BLOOD CELLS [1]: 0.33 /100WBC | PLATELET COUNT [1]: 1215.33 x10E3/uL | ALANINE AMINOTRANSFERASE [1]: 83.67 u/L | ALBUMIN [1]: 4.23 G/DL | ALKALINE PHOSPHATASE [1]: 427.67 u/L | ASPARTATE AMINOTRANSFERASE [1]: 78.33 u/L | BLOOD UREA NITROGEN [1]: 13.67 mg/dL | CARBON DIOXIDE [1]: 35 mmol/L | CHLORIDE [1]: 99.33 MEQ/L | CHOLESTEROL [1]: 86.33 mg/dL | CREATINE PHOSPHOKINASE [1]: 161.33 u/L | CREATININE [1]: 0.16 mg/dL | GLUCOSE [1]: 163 mg/dL | LACTATE DEHYDROGENASE [1]: 134.33 u/L | LIPASE [1]: 11 u/L | PHOSPHORUS [1]: 9.6 mg/dL | POTASSIUM [1]: 5.19 MEQ/L | SODIUM [1]: 143.17 MEQ/L | TOTAL BILIRUBIN [1]: 0.17 mg/dL | TOTAL PROTEIN [1]: 6.1 G/DL | URIC ACID [1]: 0.37 mg/dL | ABSOLUTE BASOPHIL [2]: 0 CELLS/uL | ABSOLUTE EOSINOPHIL [2]: 36.33 CELLS/uL | ABSOLUTE LYMPHOCYTE [2]: 10590.67 CELLS/uL | ABSOLUTE MONOCYTE [2]: 0 CELLS/uL | ABSOLUTE SEGMENTED NEUTROPHIL [2]: 573 CELLS/uL | BASOPHIL [2]: 0% | EOSINOPHIL [2]: 0.33% | ERYTHROCYTE COUNT [2]: 5.39 x10E6/uL | HEMATOCRIT [2]: 32.73% | HEMOGLOBIN [2]: 13.17 G/DL | LEUKOCYTE COUNT [2]: 11.2 x10E3/uL | LYMPHOCYTE [2]: 94.67% | MEAN CORPUSCULAR HEMOGLOBIN [2]: 24.43 pg | MEAN CORPUSCULAR HEMOGLOBIN CONCENTRATION [2]: 40.2 G/DL | MEAN CORPUSCULAR VOLUME [2]: 60.73 fL | MONOCYTE [2]: 0% | NEUTROPHIL [2]: 5% | NUCLEATED RED BLOOD CELLS [2]: 0 /100WBC | PLATELET COUNT [2]: 918 x10E3/uL | ALANINE AMINOTRANSFERASE [2]: 102.67 u/L | ALBUMIN [2]: 3.83 G/DL | ALKALINE PHOSPHATASE [2]: 517.33 u/L | ASPARTATE AMINOTRANSFERASE [2]: 96 u/L | BLOOD UREA NITROGEN [2]: 13 mg/dL | CARBON DIOXIDE [2]: 26 mmol/L | CHLORIDE [2]: 95 MEQ/L | CHOLESTEROL [2]: 89.67 mg/dL | CREATINE PHOSPHOKINASE [2]: 253 u/L | CREATININE [2]: 0.15 mg/dL | GLUCOSE [2]: 137.33 mg/dL | LACTATE DEHYDROGENASE [2]: 118.33 u/L | LIPASE [2]: 12.33 u/L | PHOSPHORUS [2]: 10.77 mg/dL | POTASSIUM [2]: 5.65 MEQ/L | SODIUM [2]: 138.1 MEQ/L | TOTAL BILIRUBIN [2]: 0.17 mg/dL | TOTAL PROTEIN [2]: 5.5 G/DL | URIC ACID [2]: 0.6 mg/dL | ABSOLUTE BASOPHIL [3]: 0 CELLS/uL | ABSOLUTE EOSINOPHIL [3]: 43.33 CELLS/uL | ABSOLUTE LYMPHOCYTE [3]: 8832 CELLS/uL | ABSOLUTE MONOCYTE [3]: 95.67 CELLS/uL | ABSOLUTE SEGMENTED NEUTROPHIL [3]: 595.67 CELLS/uL | BASOPHIL [3]: 0% | EOSINOPHIL [3]: 0.33% | ERYTHROCYTE COUNT [3]: 5.74 x10E6/uL | HEMATOCRIT [3]: 35.13% | HEMOGLOBIN [3]: 13.57 G/DL | LEUKOCYTE COUNT [3]: 9.57 x10E3/uL | LYMPHOCYTE [3]: 92% | MEAN CORPUSCULAR HEMOGLOBIN [3]: 23.67 pg | MEAN CORPUSCULAR HEMOGLOBIN CONCENTRATION [3]: 38.63 G/DL | MEAN CORPUSCULAR VOLUME [3]: 61.23 fL | MONOCYTE [3]: 1% | NEUTROPHIL [3]: 6.67% | NUCLEATED RED BLOOD CELLS [3]: 0.67 /100WBC | PLATELET COUNT [3]: 1240.33 x10E3/uL | ALANINE AMINOTRANSFERASE [3]: 89 u/L | ALBUMIN [3]: 3.93 G/DL | ALKALINE PHOSPHATASE [3]: 342 u/L | ASPARTATE AMINOTRANSFERASE [3]: 87.67 u/L | BLOOD UREA NITROGEN [3]: 14.67 mg/dL | CARBON DIOXIDE [3]: 34 mmol/L | CHLORIDE [3]: 99.5 MEQ/L | CHOLESTEROL [3]: 78.33 mg/dL | CREATINE PHOSPHOKINASE [3]: 245 u/L | CREATININE [3]: 0.15 mg/dL | GLUCOSE [3]: 170.67 mg/dL | LACTATE DEHYDROGENASE [3]: 145 u/L | LIPASE [3]: 12.67 u/L | PHOSPHORUS [3]: 10.53 mg/dL | POTASSIUM [3]: 5.47 MEQ/L | SODIUM [3]: 141.95 MEQ/L | TOTAL BILIRUBIN [3]: 0.17 mg/dL | TOTAL PROTEIN [3]: 5.57 G/DL | URIC ACID [3]: 0.67 mg/dL
